Assays:
[1] = target: T1, tau protein (Homo sapiens, UniProt P10636); assay: Tau-BiFC cell model: inhibition of tau protein aggregation; type: cell-based; conditions: for remaining activity at 10 µM / remaining activity at 3 µM: 48 h; for remaining activity at 10 µM: read-out: Response (% @10 μM); for IC50: Tau BiFC in cells, with Forskolin 30 μM, 48 hours; for remaining activity at 3 µM: compounds marked *: measured at 3 μM, read-out: Response
T1 construct: fused on or other part: Split fluorescent-protein halves for BiFC are fused to tau; In the published tau-BiFC line these are Venus VN173 and VC155
T1 sequence (P10636 2-441 isoform P10636-8 limits assumed): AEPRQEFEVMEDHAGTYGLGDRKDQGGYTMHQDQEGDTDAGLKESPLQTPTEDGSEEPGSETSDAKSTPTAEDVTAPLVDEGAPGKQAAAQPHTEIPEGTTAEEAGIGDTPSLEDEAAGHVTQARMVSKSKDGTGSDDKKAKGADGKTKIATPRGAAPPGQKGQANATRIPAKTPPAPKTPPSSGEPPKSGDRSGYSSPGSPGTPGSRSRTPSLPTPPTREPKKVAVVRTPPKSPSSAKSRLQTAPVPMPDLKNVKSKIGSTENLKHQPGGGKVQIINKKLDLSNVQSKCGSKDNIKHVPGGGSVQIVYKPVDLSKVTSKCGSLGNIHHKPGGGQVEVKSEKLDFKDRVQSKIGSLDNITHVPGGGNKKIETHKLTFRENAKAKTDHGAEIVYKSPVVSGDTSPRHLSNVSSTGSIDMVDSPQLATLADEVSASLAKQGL
Procedure: (§1) In order to select novel tau protein aggregation-inhibiting substances, tau-BiFC cell model, in which formation of tau oligomers in living cells is easily observed, was used. Tau-BiFC cells were aliquoted into a 384-well plate. On the next day, the cells were treated with each of the compounds prepared according to Examples 1 to 175 at concentrations of 1 μM, 3 μM, and 10 μM, together with Forskolin (at a treatment concentration of 30 μM), which is a compound inducing tau protein aggregation by activating tau […] PKA. After 48 hours, nuclei in the cells were stained using Hoechst (at a treatment concentration of 2 μg/mL), and BiFC fluorescence intensity was automatically measured using Operetta (PerkinElmer) to count stained nuclei in each well out of the entire well plate. The group treated only with Forskolin, which induces tau protein aggregation, was set to a reference point of a 100% tau protein-aggregated state, and the effects of the compounds were confirmed using the equation “BiFC fluorescence intensity due to compound synthesized according to embodiment of present invention/(fluorescence intensity of control group treated only with Forskolin inducing tau protein aggregation−fluorescence intensity of untreated control group)×100”. Furthermore, the degree of cytotoxicity induced by the newly synthesized compound was also measured based on the 100% cell viability of the group treated only with Forskolin as a reference, and the cytotoxicity value of each compound was calculated using the equation “(number of stained nuclei in group treated with compound/number of stained nuclei in group treated with Forskolin)×100”. Based on the treatment results, substances inhibiting intracellular tau protein aggregation were selected from a series of candidate groups showing a tau protein aggregation inhibition rate of 70% or more and cell viability of 100% at a compound treatment concentration of 10 μM or more.
(§2) In order to evaluate dose-dependent tau protein aggregation inhibition effects of the compounds selected according to Experimental Example 1 on tau protein aggregation, tau-BiFC cells were treated with the selected compounds at concentrations of 0.03 μM, […], 0.3 μM, 1 μM, 3 μM, 10 μM, and 30 μM, respectively, together with Forskolin (at a treatment concentration of 30 μM), which is a tau protein aggregation inducing substance. After 48 hours, tau protein aggregation reaction and degrees of cytotoxicity were analyzed by observing images of the cells. IC50 and toxicity of the compounds were analyzed by way of nonlinear regression analysis of prism software (Graph Pad).

[2] = tested on: Tau-BiFC cells; assay: Cell viability (cytotoxicity) in tau-BiFC cells, count of stained nuclei; type: cell-based; conditions: Forskolin-only group = 100% cell viability; for Cell viability (% @10 μM): compound 10 μM; for Cell viability: compounds marked *: measured at 3 μM
Procedure: as §1, §2

[3] = compound 10 μM, BiFC fluorescence, Forskolin-only group = 100% tau protein-aggregated state
[4] = Forskolin-only group = 100% tau protein-aggregated state

Compound	remaining activity at 10 µM [1, 3]	Cell viability (% @10 μM) [2]	IC50 [1]	remaining activity at 3 µM [1, 4]	Cell viability [2]	Response (% @10 μM) [1, 3]
N#CC(C#N)=NNc1ccc(Oc2ccccc2)c(F)c1 [Compound 71, (3-fluoro-4-phenoxyphenyl)carbonohydrazonoyl dicyanide]	0%	46%				
N#CC(C#N)=NNc1ccc(OCCc2ccc(Cl)cc2)c(C(F)(F)F)c1 [Compound 133, (4-(4-chlorophenethoxy)-3-(trifluoromethyl)phenyl)carbonohydrazonoyl dicyanide]	0%	39.7%				
N#CC(C#N)=NNc1ccc(Oc2ccccn2)cc1 [Compound 83, (4-(pyridin-2-yloxy)phenyl)carbonohydrazonoyl dicyanide]	0%	104%	1140 nM			
Cc1ccc(COc2ccc(NN=C(C#N)C#N)cc2C)cc1 [Compound 142, (3-methyl-4-(4-methylbenzyloxy)phenyl)carbonohydrazonoyl dicyanide]			1610 nM	-5%	111%	
CN(N=C(C#N)C#N)c1ccc(Oc2ccccc2)cn1 [Compound 75, methyl(5-phenoxypyridin-2-yl)carbonohydrazonoyl dicyanide]	102%	131.4%				
N#CC(C#N)=NNc1ccc(OCCc2ccccc2)c(C(F)(F)F)c1 [Compound 101, (4-phenethoxy-3-(trifluoromethyl)phenyl)carbonohydrazonoyl dicyanide]	0%	30.1%	950 nM			
(2-methoxy-4-(5-methylpyrazine-2-carboxamido)phenyl)carbonohydrazonoyl dicyanide [Compound 4]		67%				30.7%
N#CC(C#N)=NNc1ccc(OCCc2ccc(C(F)(F)F)cc2)cc1 [Compound 121, (4-(4-(trifluoromethyl)phenethoxy)phenyl)carbonohydrazonoyl dicyanide]	3.4%	72.7%	4610 nM			
Cc1cc(NN=C(C#N)C#N)ccc1OCc1ccccc1 [Compound 141, (4-(benzyloxy)-3-methylphenyl)carbonohydrazonoyl dicyanide]			866 nM	-25%	109%	
COc1ccc(NC(=O)c2ccc(NN=C(C#N)C#N)cc2)cc1 [Compound 44, (4-(4-methoxyphenylcarbamoyl)phenyl)carbonohydrazonoyl dicyanide]	0%	70.4%				
N#CC(C#N)=NNc1ccc(OCCc2ccc(Cl)cc2)nc1 [Compound 131, (6-(4-chlorophenethoxy)pyridin-3-yl)carbonohydrazonoyl dicyanide]	10.6%	33.4%				
N#CC(C#N)=NNc1ccc(OCc2nc3ccccc3o2)cc1 [Compound 128, (4-(benzo[d]oxazol-2-ylmethoxy)phenyl)carbonohydrazonoyl dicyanide]	0%	108.5%	300 nM			
Cc1ccc(NC(=O)c2ccc(NN=C(C#N)C#N)cc2)cn1 [Compound 47, (4-(6-methylpyridin-3-ylcarbamoyl)phenyl)carbonohydrazonoyl dicyanide]	0%	122.7%	2580 nM			
Cc1ccc(S(=O)(=O)Nc2ccc(NN=C(C#N)C#N)cn2)cc1 [Compound 63, (6-(4-methylphenylsulfonamido)pyridin-3-yl)carbonohydrazonoyl dicyanide]	11.5%	136.7%				
N#CC(C#N)=NNc1ccc(Oc2cccnc2)cc1 [Compound 85, (4-(pyridin-3-yloxy)phenyl)carbonohydrazonoyl dicyanide]	0%	99.1%	1580 nM			
COc1cc(NN=C(C#N)C#N)ccc1NC(=O)c1cnc(C)cn1 [Compound 10, (3-methoxy-4-(5-methylpyrazine-2-carboxamido)phenyl)carbonohydrazonoyl dicyanide]	0%	21.7%				

Compound	remaining activity at 10 µM [1, 3]	Cell viability (% @10 μM) [2]	IC50 [1]	remaining activity at 3 µM [1, 4]	Cell viability [2]	Response (% @10 μM) [1, 3]
COc1ccc(CCOc2ccc(NN=C(C#N)C#N)cc2C(F)(F)F)cc1 [Compound 134, (4-(4-methoxyphenethoxy)-3-(trifluoromethyl)phenyl)carbonohydrazonoyl dicyanide]	0%	38.1%				
COc1cc(C(=O)Nc2cnc(C)cn2)ccc1NN=C(C#N)C#N [Compound 51, (2-methoxy-4-(5-methylpyrazin-2-ylcarbamoyl)phenyl)carbonohydrazonoyl dicyanide]	45.4%	107.1%				
N#CC(C#N)=NNc1ccc(NS(=O)(=O)c2ccccc2)nc1 [Compound 58, (6-(phenylsulfonamido)pyridin-3-yl)carbonohydrazonoyl dicyanide]	51.4%	113.5%				
N#CC(C#N)=NNc1ccc(Oc2ncccn2)cc1 [Compound 91, (4-(pyrimidin-2-yloxy)phenyl)carbonohydrazonoyl dicyanide]	0%	117%	3120 nM			
N#CC(C#N)=NNc1ccc(NS(=O)(=O)c2cccs2)nc1 [Compound 62, (6-(thiophene-2-sulfonamido)pyridin-3-yl)carbonohydrazonoyl dicyanide]	87.3%	116.5%				
N#CC(C#N)=NNc1ccc(NC(=O)c2cnco2)nc1 [Compound 114, (6-(oxazole-5-carboxamido)pyridin-3-yl)carbonohydrazonoyl dicyanide]	0%	149.5%	1500 nM			
N#CC(C#N)=NNc1ccc(Oc2ccncc2)c(F)c1 [Compound 80, (3-fluoro-4-(pyridin-4-yloxy)phenyl)carbonohydrazonoyl dicyanide]	68%	112.3%				
N#CC(C#N)=NNc1ccc(Oc2ccc(C(F)(F)F)cn2)cc1 [Compound 90, (4-(5-(trifluoromethyl)pyridin-2-yloxy)phenyl)carbonohydrazonoyl dicyanide]	0%	43.7%	1290 nM			
Cc1cnc(NC(=O)c2ccc(NN=C(C#N)C#N)cc2C)cn1 [Compound 52, (3-methyl-4-(5-methylpyrazin-2-ylcarbamoyl)phenyl)carbonohydrazonoyl dicyanide]	24%	120.2%				
Cc1cnc(NC(=O)c2ccc(NN=C(C#N)C#N)cc2Cl)cn1 [Compound 106, (3-chloro-4-(5-methylpyrazin-2-ylcarbamoyl)phenyl)carbonohydrazonoyl dicyanide]	0%	184.9%				
CN(N=C(C#N)C#N)c1ccc(Oc2cccc(F)c2)nc1 [Compound 76, (6-(3-fluorophenoxy)pyridin-3-yl)(methyl)carbonohydrazonoyl dicyanide]	79.9%	121.7%				
Cc1cnc(C(=O)Nc2nc3ncc(NN=C(C#N)C#N)cc3s2)cn1 [Compound 33, (2-(5-methylpyrazine-2-carboxamido)thiazolo[4,5-b]pyridin-6-yl)carbonohydrazonoyl dicyanide]	63.9%	125%				
N#CC(C#N)=NNc1ccc(NC(=O)c2ccccc2C(F)(F)F)nc1 [Compound 28, (6-(2-(trifluoromethyl)benzamido)pyridin-3-yl)carbonohydrazonoyl dicyanide]	0%	125.8%	540 nM			
COc1ccc(CCOc2ccc(NN=C(C#N)C#N)cc2)cc1 [Compound 120, (4-(4-methoxyphenethoxy)phenyl)carbonohydrazonoyl dicyanide]	0%	66.2%	1450 nM			
Cc1cnc(C(=O)Nc2ccc(NN=C(C#N)C#N)cc2)cn1 [Compound 2, (4-(5-methylpyrazine-2-carboxamido)phenyl)carbonohydrazonoyl dicyanide]	0%	71.5%	1400 nM			

From US12649723B2, “Carbonohydrazonoyl dicyanide compounds comprising 2 or more aryl or heteroaryl connected via linker and use thereof” (KOREA INSTITUTE OF SCIENCE AND TECHNOLOGY, priority 2020, dated 2026)
